{"source": "patent US8618082B2", "about": "“Lupeol anti-tumor agent and uses thereof” (Wisconsin Alumni Research Foundation, priority 2004, dated 2013)", "key": {"[1]": {"test_system": "IκBα protein", "test": "TPA-induced phosphorylation and degradation of IκBα (western blot)", "format": "in vivo, mouse", "description": "FIG. 6. Inhibitory effect of Lupeol on TPA-induced activation of IKKα, and phosphorylation and degradation of IκBα in CD-1 mice: At different times after treatment, the animals were sacrificed, epidermal cytosolic was prepared, and protein expression was determined. Equal loading was confirmed by stripping the immunoblot and reprobing it for β-actin. The immunoblots shown here are representative of three independent experiments with similar results. The values above each lane indicate relative density of the band normalized to β-actin.\n(§1) The animals were shaved on the dorsal side of the skin, divided into four groups and treated topically on the shaved area with either 0.4 ml vehicle (acetone), or TPA (3.2 nmol/0.4 ml acetone/animal, v/v), or Lupeol (1 or 2 mg/0.2 ml acetone/animal, w/v) followed 30 min later with TPA (3.2 nmol/0.2 ml acetone/animal). […]\n(§2) Epidermis from the whole skin was separated as described earlier (Katiyar et al., 1999) and was homogenized in ice-cold lysis buffer [50 mM Tris-HCl, 150 mM NaCl, 1 mM EGTA, 1 mM EDTA, 20 mM NaF, 100 mM Na3VO4, 0.5% NP-40, 1% Triton X-100, 1 mM PMSF (pH 7.4)] with freshly added protease inhibitor cocktail, Protease Inhibitor Cocktail Set III (Calbiochem, La Jolla, Calif., USA). […] The protein content in the lysates was measured by DC BioRad assay (BioRad Laboratories, Hercules, Calif.) as per the manufacturer's protocol. […]"}, "[2]": {"test_system": "NFκB/p65", "test": "TPA-induced NFκB/p65 activation and nuclear translocation (western blot)", "format": "in vivo, mouse", "conditions": "topical Lupeol prior to TPA", "description": "FIG. 7. Inhibitory effect of Lupeol on TPA-induced NF-κB activation and its subsequent translocation to nucleus in CD-1 mice. (a) At different times after treatment, the animals were sacrificed, nuclear lysates were prepared, and protein expression was determined. The values above each lane indicate relative density of the band.\nas §1, with “acetone/animal). Animals were sacrificed at different times point i.e. 6, 12, 24 and 48 h post TPA treatment.” for “acetone/animal).”\nas §2"}, "[3]": {"test_system": "pro-caspases-8 and -9 in LNCaP cells", "test": "Pro-caspases-8 and -9 expression in LNCaP cells (western blot)", "format": "cell-based, human", "description": "FIG. 13 depicts effect of Lupeol treatment on protein expression of pro-caspases-8 and -9 in LNCaP cells. Cells were treated with only specified concentrations of Lupeol for 48 h, harvested and total cell lysates were prepared. Expression of pro-caspases-8 and -9 were determined by western blot analysis. Equal loading was confirmed by stripping immunoblots and reprobing them for β-actin. The immunoblots shown here are representative of three independent experiments with similar results."}, "[4]": {"test_system": "human PSA", "test": "Serum PSA in athymic nude mice implanted with CWR22Rv1 cells", "format": "in vivo, mouse", "conditions": "Lupeol 1 mg/animal i.p. three times a week, vs control mice", "source_text": "FIG. 19 depicts effect of Lupeol on human PSA levels in serum of athymic nude mice implanted with CWR22Rv1 cells. Data is represented as mean±SD. * indicates p<0.05.\nCW22Rv1 cells once implanted in a xenograft mouse model releases Prostate specific antigen (PSA) in host system and grows rapidly than LNCaP cells. PSA is a well known diagnostic biomarker of prostate cancer."}, "[5]": {"test_system": "PARP, Bax, Bcl-2 in AsPC-1 cells", "test": "PARP cleavage and Bax, Bcl-2 expression in AsPC-1 cells", "format": "cell-based", "source_text": "FIG. 22 depicts effect of Lupeol treatment on PARP cleavage and on protein expression of Bax, Bcl-2 in AsPC-1 cells."}}}
{"molecule": "C=C(C)[C@@H]1CC[C@]2(C)CC[C@]3(C)[C@H](CC[C@@H]4[C@@]5(C)CC[C@H](O)C(C)(C)[C@@H]5CC[C@]43C)[C@@H]12", "note": "[Lupeol, Lup-20(29)-en-3β-ol]", "values": [{"measurement": "TPA-induced degradation of IκBα protein", "setting": "[1]; topical Lupeol 30 min prior to TPA", "result": "significant inhibition"}, {"measurement": "TPA-induced phosphorylation of IκB protein (Ser32)", "setting": "[1]; topical Lupeol prior to TPA", "result": "dose dependent inhibition"}, {"measurement": "TPA-induced NFκB/p65 activation and nuclear translocation", "setting": "[2]", "result": "inhibited"}, {"measurement": "activation of Caspase-8 and 9 proteins", "setting": "[3]", "result": "induces the activation"}, {"measurement": "expression of inactive (pro-) caspases-8 and -9", "setting": "[3]; 48 h", "result": "causes disappearance of inactive caspases"}, {"measurement": "serum PSA levels", "setting": "[4]", "result": "lower serum PSA levels"}, {"measurement": "expression level of anti-apoptotic protein Bcl-2", "setting": "[5]", "result": "no change was observed"}, {"measurement": "Bax protein expression", "setting": "[5]; 48 hours", "result": "increased Bax protein expression"}, {"measurement": "cleavage of PARP", "setting": "[5]; 48 hours", "result": "induced cleavage of PARP"}]}
